According to PubChem BioAssay (NCI):
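1) Cells in 96-well plates. 2) Compound, 48 h, 5 concentrations. 3) Linear interpolation between surrounding doses. 4) Unreached endpoint = highest concentration. At the TGI there is no net growth.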

Each compound was assayed on 786-0 renal (assay: growth of human tumour cells (NCI), 48 h).

Compound | TGI [µM]
Cc1ccc(N=Nc2c(C)c(C#N)c(=S)n(C3OC(CO)C(O)C(O)C3O)c2C)cc1 (centres undefined) | 83.8
C=C(CC[C@@H](C)[C@H]1CC[C@@]2(C)C3=C(CC[C@]12C)[C@@]1(C)CC[C@H](O)[C@@H](C)C1CC3)C(C)C (some centres undefined) | 2.07
CC(=O)OCCOCn1cnc2c(Cl)nc(Cl)nc21 | 58
COc1ccc(N2C(=O)c3cc(C)cnc3S2(=O)=O)cc1 | > 100
CC(C)=CC(=O)C[C@H]1C(=O)O[C@@H]2C[C@H]3C(C)=CC(=O)[C@@H](O)[C@]3(C)[C@H]3[C@@]4(O)OC[C@]32[C@@H]1[C@@H](C)[C@H]4O | 0.838
Cn1c(=O)c2[nH]c(CCCCC(=O)O)nc2n(C)c1=O | > 100
Cc1cc(C)n(C2OC(CO)C(O)C(O)C2O)c(=S)c1C#N (centres undefined) | > 100
Cc1ccc(-c2c3nc(c(-c4ccc(C)cc4)c4ccc([nH]4)c(-c4ccc(OCC5COC(C)(C)O5)cc4)c4nc(c(-c5ccc(C)cc5)c5ccc2[nH]5)C=C4)C=C3)cc1 (centres undefined) | > 31.6
Cc1ccccc1N=Nc1ccc(N/N=C2/CCCNC2=O)c(C)c1 | > 100
CCn1c2ccccc2n2c(=O)c3c(c(C#N)c12)CCCC3 | > 100
CN(/N=C/c1ccc(OCc2cccc(COc3ccc(C=O)cc3)n2)cc1)c1cnn(-c2ccc(Cl)cc2Cl)c(=O)c1Cl | > 100
CC12CCC([C@H](C(O)C3CCCCC3)C1=O)C2(C)C (some centres undefined) | > 100
C=C1CC[C@H](O)C(C)(C)[C@@H]1CC/C(C)=C/CC/C=C(\C)CC/C=C(\C)CCC=C(C)C | > 100
c1ccc(CSP234N5CCN2CCN3CCN4CC5)c(CSP234N5CCN2CCN3CCN4CC5)c1 | > 100
COc1cc2c(cc1OC)CCc1cc(OC)c(OC)cc1CC2 | > 100
COc1ccc(N2C(=O)C3ON(C(C(N)=O)c4ccccc4)C(c4cc5ccccc5c5ccccc45)C3C2=O)cc1 (centres undefined) | > 50
O=c1[nH]c(Nc2nc3ccccc3[nH]2)nc2c1CCC2 | > 100
O=C1N[C@@H](c2c[nH]c3cc(Br)ccc23)C(=O)N[C@H]1c1c[nH]c2cc(Br)ccc12 | > 100
COc1ccccc1N1CCN(CCCN2/C(=C(\O)c3ccccc3)C(=O)c3c(C)cc(C)nc3S2(=O)=O)CC1 | > 100
c1ccc2c(c1)nc1n2CNC1 | > 100
Cc1ccc(C)c(COCCOCn2ccc(N)nc2=O)c1 | > 100
CCOP(=O)(O)C1C(CO)OC(n2ccc(=O)[nH]c2=O)C1O (centres undefined) | > 100
O=C1NCCCNCCCNCCCNC(=O)c2cccc1n2 | > 100
CSC1=N/C(=C\c2ccccc2)C(=O)N1CN1CCCCC1 | > 100
COC(=O)C1=C(C(=O)OC)c2cc(OC)ccc2C(C(=S)N(C)C)S1 (centres undefined) | > 100

Each compound was assayed on A549 NSCLC (assay: growth of human tumour cells (NCI), 48 h).

Compound | TGI [µM]
Cc1ccc(N=Nc2c(C)c(C#N)c(=S)n(C3OC(CO)C(O)C(O)C3O)c2C)cc1 (centres undefined) | > 100
C=C(CC[C@@H](C)[C@H]1CC[C@@]2(C)C3=C(CC[C@]12C)[C@@]1(C)CC[C@H](O)[C@@H](C)C1CC3)C(C)C (some centres undefined) | 2.32
COc1ccc(N2C(=O)c3cc(C)cnc3S2(=O)=O)cc1 | > 100
Cn1c(=O)c2[nH]c(CCCCC(=O)O)nc2n(C)c1=O | > 100
Cc1cc(C)n(C2OC(CO)C(O)C(O)C2O)c(=S)c1C#N (centres undefined) | > 100
Cc1ccc(-c2c3nc(c(-c4ccc(C)cc4)c4ccc([nH]4)c(-c4ccc(OCC5COC(C)(C)O5)cc4)c4nc(c(-c5ccc(C)cc5)c5ccc2[nH]5)C=C4)C=C3)cc1 (centres undefined) | > 31.6
Cc1ccccc1N=Nc1ccc(N/N=C2/CCCNC2=O)c(C)c1 | > 100
CCn1c2ccccc2n2c(=O)c3c(c(C#N)c12)CCCC3 | > 100
CN(/N=C/c1ccc(OCc2cccc(COc3ccc(C=O)cc3)n2)cc1)c1cnn(-c2ccc(Cl)cc2Cl)c(=O)c1Cl | > 100
C=C1CC[C@H](O)C(C)(C)[C@@H]1CC/C(C)=C/CC/C=C(\C)CC/C=C(\C)CCC=C(C)C | > 100
c1ccc(CSP234N5CCN2CCN3CCN4CC5)c(CSP234N5CCN2CCN3CCN4CC5)c1 | > 100
COc1cc2c(cc1OC)CCc1cc(OC)c(OC)cc1CC2 | > 100
COc1ccc(N2C(=O)C3ON(C(C(N)=O)c4ccccc4)C(c4cc5ccccc5c5ccccc45)C3C2=O)cc1 (centres undefined) | > 50
O=c1[nH]c(Nc2nc3ccccc3[nH]2)nc2c1CCC2 | > 100
O=C1N[C@@H](c2c[nH]c3cc(Br)ccc23)C(=O)N[C@H]1c1c[nH]c2cc(Br)ccc12 | > 100
COc1ccccc1N1CCN(CCCN2/C(=C(\O)c3ccccc3)C(=O)c3c(C)cc(C)nc3S2(=O)=O)CC1 | > 100
c1ccc2c(c1)nc1n2CNC1 | > 100
Cc1ccc(C)c(COCCOCn2ccc(N)nc2=O)c1 | > 100
CCOP(=O)(O)C1C(CO)OC(n2ccc(=O)[nH]c2=O)C1O (centres undefined) | > 100
O=C1NCCCNCCCNCCCNC(=O)c2cccc1n2 | > 100
CSC1=N/C(=C\c2ccccc2)C(=O)N1CN1CCCCC1 | > 100
COC(=O)C1=C(C(=O)OC)c2cc(OC)ccc2C(C(=S)N(C)C)S1 (centres undefined) | > 100

What follows are compounds tested on ACHN renal (assay: growth of human tumour cells (NCI), 48 h).

Compound | TGI [µM]
Cc1ccc(N=Nc2c(C)c(C#N)c(=S)n(C3OC(CO)C(O)C(O)C3O)c2C)cc1 (centres undefined) | > 100
C=C(CC[C@@H](C)[C@H]1CC[C@@]2(C)C3=C(CC[C@]12C)[C@@]1(C)CC[C@H](O)[C@@H](C)C1CC3)C(C)C (some centres undefined) | 2.55
CC(=O)OCCOCn1cnc2c(Cl)nc(Cl)nc21 | 30.6
COc1ccc(N2C(=O)c3cc(C)cnc3S2(=O)=O)cc1 | > 100
CC(C)=CC(=O)C[C@H]1C(=O)O[C@@H]2C[C@H]3C(C)=CC(=O)[C@@H](O)[C@]3(C)[C@H]3[C@@]4(O)OC[C@]32[C@@H]1[C@@H](C)[C@H]4O | 0.834
Cn1c(=O)c2[nH]c(CCCCC(=O)O)nc2n(C)c1=O | > 100
Cc1cc(C)n(C2OC(CO)C(O)C(O)C2O)c(=S)c1C#N (centres undefined) | > 100
Cc1ccc(-c2c3nc(c(-c4ccc(C)cc4)c4ccc([nH]4)c(-c4ccc(OCC5COC(C)(C)O5)cc4)c4nc(c(-c5ccc(C)cc5)c5ccc2[nH]5)C=C4)C=C3)cc1 (centres undefined) | > 31.6
Cc1ccccc1N=Nc1ccc(N/N=C2/CCCNC2=O)c(C)c1 | > 100
CCn1c2ccccc2n2c(=O)c3c(c(C#N)c12)CCCC3 | > 100
CN(/N=C/c1ccc(OCc2cccc(COc3ccc(C=O)cc3)n2)cc1)c1cnn(-c2ccc(Cl)cc2Cl)c(=O)c1Cl | > 100
CC12CCC([C@H](C(O)C3CCCCC3)C1=O)C2(C)C (some centres undefined) | > 100
C=C1CC[C@H](O)C(C)(C)[C@@H]1CC/C(C)=C/CC/C=C(\C)CC/C=C(\C)CCC=C(C)C | > 100
c1ccc(CSP234N5CCN2CCN3CCN4CC5)c(CSP234N5CCN2CCN3CCN4CC5)c1 | > 100
COc1cc2c(cc1OC)CCc1cc(OC)c(OC)cc1CC2 | > 100
COc1ccc(N2C(=O)C3ON(C(C(N)=O)c4ccccc4)C(c4cc5ccccc5c5ccccc45)C3C2=O)cc1 (centres undefined) | > 50
O=c1[nH]c(Nc2nc3ccccc3[nH]2)nc2c1CCC2 | > 100
O=C1N[C@@H](c2c[nH]c3cc(Br)ccc23)C(=O)N[C@H]1c1c[nH]c2cc(Br)ccc12 | > 100
COc1ccccc1N1CCN(CCCN2/C(=C(\O)c3ccccc3)C(=O)c3c(C)cc(C)nc3S2(=O)=O)CC1 | > 100
c1ccc2c(c1)nc1n2CNC1 | > 100
Cc1ccc(C)c(COCCOCn2ccc(N)nc2=O)c1 | > 100
CCOP(=O)(O)C1C(CO)OC(n2ccc(=O)[nH]c2=O)C1O (centres undefined) | > 100
O=C1NCCCNCCCNCCCNC(=O)c2cccc1n2 | > 100
CSC1=N/C(=C\c2ccccc2)C(=O)N1CN1CCCCC1 | > 100
COC(=O)C1=C(C(=O)OC)c2cc(OC)ccc2C(C(=S)N(C)C)S1 (centres undefined) | > 100

Each compound was assayed on CAKI-1 renal (assay: growth of human tumour cells (NCI), 48 h).

Compound | TGI [µM]
Cc1ccc(N=Nc2c(C)c(C#N)c(=S)n(C3OC(CO)C(O)C(O)C3O)c2C)cc1 (centres undefined) | > 100
C=C(CC[C@@H](C)[C@H]1CC[C@@]2(C)C3=C(CC[C@]12C)[C@@]1(C)CC[C@H](O)[C@@H](C)C1CC3)C(C)C (some centres undefined) | 2.26
CC(=O)OCCOCn1cnc2c(Cl)nc(Cl)nc21 | 0.832
CC(C)=CC(=O)C[C@H]1C(=O)O[C@@H]2C[C@H]3C(C)=CC(=O)[C@@H](O)[C@]3(C)[C@H]3[C@@]4(O)OC[C@]32[C@@H]1[C@@H](C)[C@H]4O | > 50.2
Cn1c(=O)c2[nH]c(CCCCC(=O)O)nc2n(C)c1=O | > 100
Cc1cc(C)n(C2OC(CO)C(O)C(O)C2O)c(=S)c1C#N (centres undefined) | > 100
Cc1ccc(-c2c3nc(c(-c4ccc(C)cc4)c4ccc([nH]4)c(-c4ccc(OCC5COC(C)(C)O5)cc4)c4nc(c(-c5ccc(C)cc5)c5ccc2[nH]5)C=C4)C=C3)cc1 (centres undefined) | > 100
Cc1ccccc1N=Nc1ccc(N/N=C2/CCCNC2=O)c(C)c1 | > 100
CCn1c2ccccc2n2c(=O)c3c(c(C#N)c12)CCCC3 | > 100
CN(/N=C/c1ccc(OCc2cccc(COc3ccc(C=O)cc3)n2)cc1)c1cnn(-c2ccc(Cl)cc2Cl)c(=O)c1Cl | > 100
CC12CCC([C@H](C(O)C3CCCCC3)C1=O)C2(C)C (some centres undefined) | > 100
C=C1CC[C@H](O)C(C)(C)[C@@H]1CC/C(C)=C/CC/C=C(\C)CC/C=C(\C)CCC=C(C)C | > 100
c1ccc(CSP234N5CCN2CCN3CCN4CC5)c(CSP234N5CCN2CCN3CCN4CC5)c1 | > 100
COc1cc2c(cc1OC)CCc1cc(OC)c(OC)cc1CC2 | > 100
COc1ccc(N2C(=O)C3ON(C(C(N)=O)c4ccccc4)C(c4cc5ccccc5c5ccccc45)C3C2=O)cc1 (centres undefined) | 18.5
O=c1[nH]c(Nc2nc3ccccc3[nH]2)nc2c1CCC2 | > 100
COc1ccccc1N1CCN(CCCN2/C(=C(\O)c3ccccc3)C(=O)c3c(C)cc(C)nc3S2(=O)=O)CC1 | > 100
c1ccc2c(c1)nc1n2CNC1 | > 100
Cc1ccc(C)c(COCCOCn2ccc(N)nc2=O)c1 | > 100
CCOP(=O)(O)C1C(CO)OC(n2ccc(=O)[nH]c2=O)C1O (centres undefined) | > 100
O=C1NCCCNCCCNCCCNC(=O)c2cccc1n2 | > 100
COC(=O)C1=C(C(=O)OC)c2cc(OC)ccc2C(C(=S)N(C)C)S1 (centres undefined) | > 100

What follows are compounds tested on HCT-116 colon (assay: growth of human tumour cells (NCI), 48 h).

Compound | TGI [µM]
Cc1ccc(N=Nc2c(C)c(C#N)c(=S)n(C3OC(CO)C(O)C(O)C3O)c2C)cc1 (centres undefined) | 62.9
C=C(CC[C@@H](C)[C@H]1CC[C@@]2(C)C3=C(CC[C@]12C)[C@@]1(C)CC[C@H](O)[C@@H](C)C1CC3)C(C)C (some centres undefined) | 2.48
CC(=O)OCCOCn1cnc2c(Cl)nc(Cl)nc21 | 32
COc1ccc(N2C(=O)c3cc(C)cnc3S2(=O)=O)cc1 | > 100
CC(C)=CC(=O)C[C@H]1C(=O)O[C@@H]2C[C@H]3C(C)=CC(=O)[C@@H](O)[C@]3(C)[C@H]3[C@@]4(O)OC[C@]32[C@@H]1[C@@H](C)[C@H]4O | 0.114
Cn1c(=O)c2[nH]c(CCCCC(=O)O)nc2n(C)c1=O | > 100
Cc1cc(C)n(C2OC(CO)C(O)C(O)C2O)c(=S)c1C#N (centres undefined) | > 100
Cc1ccc(-c2c3nc(c(-c4ccc(C)cc4)c4ccc([nH]4)c(-c4ccc(OCC5COC(C)(C)O5)cc4)c4nc(c(-c5ccc(C)cc5)c5ccc2[nH]5)C=C4)C=C3)cc1 (centres undefined) | > 31.6
Cc1ccccc1N=Nc1ccc(N/N=C2/CCCNC2=O)c(C)c1 | > 100
CCn1c2ccccc2n2c(=O)c3c(c(C#N)c12)CCCC3 | > 100
CN(/N=C/c1ccc(OCc2cccc(COc3ccc(C=O)cc3)n2)cc1)c1cnn(-c2ccc(Cl)cc2Cl)c(=O)c1Cl | > 100
CC12CCC([C@H](C(O)C3CCCCC3)C1=O)C2(C)C (some centres undefined) | > 100
C=C1CC[C@H](O)C(C)(C)[C@@H]1CC/C(C)=C/CC/C=C(\C)CC/C=C(\C)CCC=C(C)C | > 100
c1ccc(CSP234N5CCN2CCN3CCN4CC5)c(CSP234N5CCN2CCN3CCN4CC5)c1 | > 100
COc1cc2c(cc1OC)CCc1cc(OC)c(OC)cc1CC2 | > 100
COc1ccc(N2C(=O)C3ON(C(C(N)=O)c4ccccc4)C(c4cc5ccccc5c5ccccc45)C3C2=O)cc1 (centres undefined) | > 50
O=c1[nH]c(Nc2nc3ccccc3[nH]2)nc2c1CCC2 | > 100
O=C1N[C@@H](c2c[nH]c3cc(Br)ccc23)C(=O)N[C@H]1c1c[nH]c2cc(Br)ccc12 | > 100
COc1ccccc1N1CCN(CCCN2/C(=C(\O)c3ccccc3)C(=O)c3c(C)cc(C)nc3S2(=O)=O)CC1 | > 100
c1ccc2c(c1)nc1n2CNC1 | > 100
